Experimental data published in patent US8377895B2, “Cyclin-dependent protein kinases inhibitors of Scutellaria flavonoid organic amine derivatives, synthesis and use thereof” (priority 2008, dated 2013).
≈ marks a conversion by molar mass, not a printed value. Values belong to the compound of their own block, whether it stands above or below them.

Tests used:
Breast (MCF-7) = test: Anticancer activity in vitro (Table 3), MCF-7; assay type: cell-based, human
[1] = system: human breast cancer MCF-7; test: MTT cancer cell growth inhibition, MCF-7; assay type: cell-based
[2] = Druggability screening: protein binding rate; assay type: in vitro ADME
[3] = system: human cervical carcinoma HeLa cell line; test: MTT cancer cell growth inhibition, HeLa; assay type: cell-based
[4] = system: human breast cancer MCF-7; test: Annexin V-PI double staining flow cytometry apoptosis, MCF-7; assay type: cell-based; conditions: MCF-7, concentration equals to IC50, 48 hours
Prostate (PC-3) = test: Anticancer activity in vitro (Table 3), PC-3; assay type: cell-based, human; conditions: 48 h
[5] = system: human gastric cancer BGC823 cell lines; test: MTT cancer cell growth inhibition, BGC823; assay type: cell-based
Cdk1/Cyclin B = Cdk1/Cyclin B (Homo sapiens, UniProt P06493); test: Cdk1/Cyclin B inhibitory activity, Z'-LYTE Kinase Assay; assay type: biochemical; conditions: ATP 10 μM; 8 concentrations of 0.01-25 μM
Sequence of Cdk1/Cyclin B (P06493 whole entry): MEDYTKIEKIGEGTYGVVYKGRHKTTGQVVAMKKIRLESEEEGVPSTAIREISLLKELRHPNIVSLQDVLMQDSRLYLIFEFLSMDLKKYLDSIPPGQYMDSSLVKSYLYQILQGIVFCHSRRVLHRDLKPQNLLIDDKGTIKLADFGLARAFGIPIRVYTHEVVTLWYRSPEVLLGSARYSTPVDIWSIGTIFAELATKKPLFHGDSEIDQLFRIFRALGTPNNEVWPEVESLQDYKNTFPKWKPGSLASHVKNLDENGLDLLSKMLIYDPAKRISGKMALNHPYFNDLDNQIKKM
Sequence of Cdk1/Cyclin B (P14635 whole entry partner): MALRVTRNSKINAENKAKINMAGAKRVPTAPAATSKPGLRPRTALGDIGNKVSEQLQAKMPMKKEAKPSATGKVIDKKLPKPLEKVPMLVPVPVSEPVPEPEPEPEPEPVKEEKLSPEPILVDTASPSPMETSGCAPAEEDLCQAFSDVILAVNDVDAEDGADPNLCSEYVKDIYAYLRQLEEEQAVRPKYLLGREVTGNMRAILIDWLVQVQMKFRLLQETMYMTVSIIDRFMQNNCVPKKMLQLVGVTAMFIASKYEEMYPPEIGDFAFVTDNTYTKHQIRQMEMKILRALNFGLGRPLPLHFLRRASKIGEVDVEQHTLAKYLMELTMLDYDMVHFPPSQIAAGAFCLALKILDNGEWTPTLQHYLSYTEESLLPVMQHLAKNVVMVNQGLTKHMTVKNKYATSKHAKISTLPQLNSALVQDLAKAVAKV

MCF-7 = test: cells; conditions: Homo sapiens; for CC50: MCF7, read-out: MCF-7 LC50; for GI50: MCF7, read-out: MCT-7 GI50
[6] = system: human cervical carcinoma HeLa cell line; test: Annexin V-PI double staining flow cytometry apoptosis, HeLa; assay type: cell-based; conditions: concentration equals to IC50, 48 hours
[7] = system: 58 kinds human tumor cell; test: NCI growth inhibition of 58 kinds human tumor cell; assay type: cell-based; conditions: 48 h, by NCI, read-out: growth inhibition rates in vitro 58 kinds human tumor cell
gastric (BGC-823) = test: Anticancer activity in vitro (Table 3), BGC-823; assay type: cell-based, human
[8] = system: human gastric cancer BGC823 cell lines; test: Annexin V-PI double staining flow cytometry apoptosis, BGC823; assay type: cell-based; conditions: BGC823, concentration equals to IC50, 48 hours
[9] = Distribution and plasma binding in rabbits (LC-DAD-MS); assay type: in vivo
From the text: The major metabolic process relates to the structures is illustrated in the following scheme.

[10] = Druggability screening: solubility in PBS (pH7.4); assay type: physicochemical; conditions: pH 7.4, aqueous buffer

Compound: CN1CCN(Cc2c(O)c(O)c(O)c3c(=O)cc(-c4ccccc4)oc23)CC1 [Methylpiperazine Baicalein, 5,6,7-trihydroxy-8-((4-methylpiperazin-1-yl)methyl)-2-phenyl-4H-chromen-4-one]
MCF-7 TGI (Breast (MCF-7); 48 h): 16.4 µM | GI50 (Breast (MCF-7); Homo sapiens, MCF7, 48 h): 6.4 µM | IC50 (Breast (MCF-7); Homo sapiens, MCF7, 48 h): 19.3 µM | CC50 (Breast (MCF-7); Homo sapiens, MCF7, 48 h, read-out: MCF-7 LC50): 31.3 µM | IC50 ([1]; MCF7, 24 h): 13.7 ± 0.21 µM | IC50 ([1]; MCF7, 48 h): 10.6 ± 0.17 µM | IC50 ([1]; MCF7, 72 h): 7.4 ± 0.25 µM | fraction unbound [2]: 0.02 | IC50 ([3]; 24 h): 12.8 ± 0.2 µM | IC50 ([3]; 48 h): 8.2 ± 0.15 µM | IC50 ([3]; 72 h): 6.7 ± 0.24 µM | early apoptosis [4]: 72.3% | late apoptosis and cellular necrosis [4]: 23.1% | PC-3 TGI (Prostate (PC-3)): 19.8 µM | GI50 (Prostate (PC-3); Homo sapiens): 8.2 µM | IC50 (Prostate (PC-3); Homo sapiens): 21.1 µM | LC50 (Prostate (PC-3); Homo sapiens): 38.8 µM | IC50 ([5]; BGC-823, 24 h): 9.6 ± 0.21 µM | IC50 ([5]; BGC-823, 48 h): 7.2 ± 0.23 µM | IC50 ([5]; BGC-823, 72 h): 6.5 ± 0.19 µM | IC50 (Cdk1/Cyclin B): 0.29 µM | CC50 (MCF-7): 37.2 µM | GI50 (MCF-7): 10.9 µM | early apoptosis [6]: 67.3% | late apoptosis and cellular necrosis [6]: 27.1% | inhibition at 10 µM [7]: 50% | BGC-823 TGI (gastric (BGC-823); 48 h): 19.8 µM | GI50 (gastric (BGC-823); Homo sapiens, BGC-823, 48 h): 6.4 µM | IC50 (gastric (BGC-823); Homo sapiens, BGC-823, 48 h): 23.1 µM | CC50 (gastric (BGC-823); Homo sapiens, BGC-823, 48 h, read-out: BGC-823 LC50): 62.7 µM | early apoptosis [8]: 69.2% | late apoptosis and cellular necrosis [8]: 22.2% | tissue distribution ([9]; LC-DAD-MS): rapidly distributed to various tissues | fraction unbound ([9]; rabbit, plasma, dose-independent manner, read-out: bound to plasma (converted)): 0.02 | solubility [10]: 6.02 µM (≈ 2.3 µg/mL)

IC50 (Cdk1/Cyclin B): > 25 µM
Compound: COc1c(O)c(CN2CCN(C)CC2)c(O)c2c(=O)cc(-c3ccccc3)oc12 [Methylpiperazine Wogonin, 6-((4-methylpiperazin-1-yl)methyl)-5,7-dihydroxy-8-methoxy-2-phenyl-4H-chromen-4-one]

Compound: O=c1cc(-c2ccccc2)oc2c(CN3CCOCC3)c(O)c(O)c(O)c12 [Morpholine Baicalein]
IC50 (Cdk1/Cyclin B): 0.3 µM | CC50 (MCF-7): 48.9 µM | GI50 (MCF-7): 10.1 µM

IC50 (Cdk1/Cyclin B): > 25 µM
Compound: COc1c(O)c(CN2CCOCC2)c(O)c2c(=O)cc(-c3ccccc3)oc12 [Morpholine Wogonin, 5,7-dihydroxy-8-methoxy-6-(morpholinomethyl)-2-phenyl-4H-chromen-4-one]

IC50 (Cdk1/Cyclin B): 0.28 µM | GI50 (MCF-7): 13.8 µM | solubility [10]: 166 µM (≈ 61.2 µg/mL)
Compound: O=c1cc(-c2ccccc2)oc2c(CN3CCNCC3)c(O)c(O)c(O)c12 [Piperazine Baicalein]
CC50 (MCF-7): 53.1 µM

IC50 (Cdk1/Cyclin B): 6.62 µM
Compound: COc1c(O)c(CN2CCNCC2)c(O)c2c(=O)cc(-c3ccccc3)oc12 [Piperazine Wogonin, 5,7-dihydroxy-8-methoxy-2-phenyl-6-(piperazin-1-ylmethyl)-4H-chromen-4-one]

GI50 (MCF-7): 10.5 µM
Compound: O=c1cc(-c2ccccc2)oc2c(CN3CCCCC3)c(O)c(O)c(O)c12 [Piperidine Baicalein]
CC50 (MCF-7): 37.2 µM

IC50 (Cdk1/Cyclin B): 10.5 µM
Compound: COc1c(O)c(CN2CCCCC2)c(O)c2c(=O)cc(-c3ccccc3)oc12 [Piperidine Wogonin, 5,7-dihydroxy-8-methoxy-2-phenyl-6-(piperidin-1-ylmethyl)-4H-chromen-4-one]

Compound: O=c1cc(-c2ccccc2)oc2c(CN3CCCC3)c(O)c(O)c(O)c12 [Pyrrolidine Baicalein]
GI50 (MCF-7): 10.3 µM

IC50 (Cdk1/Cyclin B): 17.2 µM
Compound: COc1c(O)c(CN2CCCC2)c(O)c2c(=O)cc(-c3ccccc3)oc12 [Pyrrolidine Wogonin, 5,7-dihydroxy-8-methoxy-2-phenyl-6-(pyrrolidin-1-ylmethyl)-4H-chromen-4-one]

GI50 (MCF-7): 14.2 µM
Compound: O=c1cc(-c2ccccc2)oc2c(CN3CCSCC3)c(O)c(O)c(O)c12 [Sulfurmorpholine Baicalein]
CC50 (MCF-7): 84.3 µM

IC50 (Cdk1/Cyclin B): 3.17 µM
Compound: COc1c(O)c(CN2CCSCC2)c(O)c2c(=O)cc(-c3ccccc3)oc12 [Sulfurmorpholine Wogonin, 5,7-dihydroxy-8-methoxy-2-phenyl-6-(thiomorpholinomethyl)-4H-chromen-4-one]

IC50 (Cdk1/Cyclin B): 3.5 µM
Compound: COc1c(O)cc(O)c2c(=O)cc(-c3ccccc3)oc12 [Wogonin, reference compound]
